Patent US20170334919A1, “2-((4-AMINO-3-(3-FLUORO-5-HYDROXYPHENYL)-1H-PYRAZOLO[3,4-D]PYRIMIDIN-1 -YL)METHYL)-3-(2-(TRIFLUORO-MET HYL)BENZYL)QUINAZOLIN-4(3H)-ONE DERIVATIVES AND THEIR USE AS PHOSPHOINOSITIDE 3-KINASE INHIBITORS” (RESPIVERT LTD., priority 2013, published 2017)

What was measured:
[1] = system: PI3K γ (Akt phosphorylation in d-U937 cells); experiment: PI3K γ cell based assay: MCP-1-induced Akt phosphorylation in d-U937 cells; conditions: Homo sapiens, dU937; inhibition of induced Akt phosphorylation; read-out: Cellular Activity REC50 values in d-U937 cells, MCP-1 stimulus
Procedure: As a means of assessing the activation of PI3K γ in response to stimuli, the phosphorylation status of the protein, Akt, a downstream product of PI3K γ signalling, was determined following stimulation with MCP-1.
U937 cells were differentiated to macrophage-type cells by incubation with PMA (100 ng/mL) for 48 to 72 hr. Cells were then pre-incubated with either the test compound or vehicle for 2 hr and were then stimulated briefly with MCP-1 (10 nM, 1 min) and the reaction stopped by replacing the media with 4% formaldehyde solution. […] After washing with buffer (PBS containing 0.1% Triton X-100), cells were incubated with an HRP-conjugated secondary antibody (Dako) and the resultant signal was determined colorimetrically (OD: 450 nm with a reference wavelength of 655 nm) using TMB substrate (substrate reagent pack supplied by R&D Systems, Inc.).
This reaction was stopped by addition of 1N H2SO4 solution (100 μL). […] After washing with buffer (PBS containing 0.1% Triton X-100) 1% SDS (100 μL) was added to each well and the plates were shaken lightly for 1 hr prior to measuring the absorbance at 595 nm (Varioskan® Flash, Thermo-Fisher Scientific). The measured OD450-655 readings were corrected for cell number by dividing the OD450-655 by the OD595 readings. The ratio of pAkt signal to total Akt signal was used to quantitate the extent of PI3K γ activation. […]

IFNγ-primed U937 cells = experiment: Superoxide anion production assay (zymosan-induced ROS); assay type: cell-based; conditions: Homo sapiens, U-937; read-out: REC50, Zymosan-induced ROS production in IFNγ-primed U937 cells
Procedure: As a means of assessing PI3Kδ dependent cell function, superoxide anion production in IFNγ-primed U937 cells was evaluated by a chemiluminescence assay. The U937 cells (purchased from ATCC, Manassas, Va.) were maintained in RPMI 1640 (Invitrogen Ltd., Paisley, UK) with 10% FCS at 37° C. The cells were suspended at a density of 10^7cells/mL in 40 mL 10% FCS RPMI 1640, and treated with 20 μL of 100 μg/mL IFNγ solution (final concentration: 50 ng/mL), and incubated at 37° C., 5% CO2 for 4 days.
IFNγ-primed U937 cells were seeded at 0.2×10^6 cells/well in a 96-well plate, and pre-incubated with test compounds for 2 hr in starvation media (0.5% FCS RPMI1640-phenol red free). Zymosan A (10 mg) from Saccharomyses cerevisiae (ex Sigma-Aldlich) was resuspended in 1 mL of 150 mM NaCl and boiled at 100° C. for 15 min. After boiling, Zymosan particles were washed with 1 mL of PBS twice, and incubated with 0.5 mL of BioParticles™ opsonized reagents (Life technologies) for 60 min at 37° C. […] Chemiluminescence indicating released superoxide anion was measured every 15 min up to 60 min by luminometric measurement (Varioskan® Flash, Thermo-Fisher Scientific).
The data at 60 min after incubation was used for analysis. […] The relative EC50 values were calculated from the concentration-response curves generated by the serial dilutions of the test compounds using XL-Fit (idbs, Guildford, UK).

d-U937 cells = experiment: MTT assay, cell viability; assay type: cell-based, human; conditions: 10 μg/mL
Procedure: PMA-differentiated U937 cells were pre-incubated with test compound (10 μg/mL) or vehicle for 4 hr in 5% FCS or 10% FCS for 24 hr. The supernatant was replaced with new media (200 μL) and MTT stock solution (10 μL, 5 mg/mL) was added to each well. After 1 hr incubation, the media were removed, 200 μL of DMSO was added to each well and the plates were shaken lightly for 1 hr prior to reading the absorbance at 550 nm. The percentage loss of cell viability was calculated for each well relative to vehicle (0.5% DMSO)-treatment.

EC50 [1]: 16.5 nM | EC50 (IFNγ-primed U937 cells): 11.8 nM
Structure (SMILES): COCCOCCOCC#Cc1cccc2nc(Cn3nc(-c4cc(O)cc(F)c4)c4c(N)ncnc43)n(Cc3ccccc3C(F)(F)F)c(=O)c12 [Compound (I), 2-((4-Amino-3-(3-fluoro-5-hydroxyphenyl)-1H-pyrazolo[3,4-d]pyrimidin-1-yl)methyl)-5-(3-(2-(2-methoxyethoxy)ethoxy)prop-1-yn-1-yl)-3-(2-(trifluoromethyl)benzyl)quinazolin-4(3H)-one]
Cell Viability MTT Assay in d-U937 cells at 4 hr (d-U937 cells; 4 hr): −ve (−ve indicates a value of <30% inhibition at 10 μg/mL) | Cell Viability MTT Assay in d-U937 cells at 24 hr (d-U937 cells; 24 hr): −ve (−ve indicates a value of <30% inhibition at 10 μg/mL)
